Source: patent publication US12090164B2, “Genotype-agnostic rescue of cystic fibrosis with small molecule bicarbonate channels” (The Board of Trustees of the University of Illinois, priority 2017, dated 2024)
Entries after “also recorded” stand apart in the source; their conditions may differ.

What was measured:
[1] = test system: CuFi-1 (ΔF508/ΔF508) epithelia; experiment: Basolateral to apical H14CO3- transport; type: cell-based, human; settings: AmB 2 μM basolateral
[2] = test system: CuFi-1 epithelia; experiment: ASL height by confocal microscopy; type: cell-based, human
Method: ASL height was studied using an established fluorescent dye assay (60, 61). Small diameter NuLi and CuFi-1 cultured epithelia were used for this experiment (0.33 cm^2). 24 hours prior to the start of experiment, the apical side of all cultured epithelia was rinsed three times with warm PBS to remove excess mucus. NuLi epithelia were treated with perfluorocarbon (FC-72) vehicle or 500 µM basolateral bumetanide in DMSO vehicle applied to the media, and CuFi epithelia were treated with 20 μL vehicle, 0.005, 0.5, or 50 μM AmB, or 0.5 μM C35deOAmB suspended in perfluorocarbon (FC-72, Sigma), with or without 500 μM basolateral bumetanide in DMSO vehicle applied to the media and incubated for 24 hours at 37° C. After 24 hours, 2.5 μL of a 2 mg/mL 70 kDa Texas Red-dextran conjugate (Molecular Probes) solution in PBS was added to the apical side of the epithelia, followed by 100 μL of FC-770 to prevent evaporation. Then the culture support was placed on top of 100 μL of PBS on a 10 mm glass bottom Fluorodish for imaging (World Precision Instruments). Epithelia were imaged immediately after dye addition and again at 24 hours to examine dye absorption. Three Z-stack images per membrane were taken on an Zeiss LSM700 confocal microscope at 40× oil immersion. These images were analyzed using ImageJ (62) to determine the average ASL height in the center 1300 pixels of each image. Images were smoothed, converted to 8-bit, and thresholded to most accurately represent the red area. The parameters for Analyze Particles were particles from 1-Infinity μm^2 in size and from 0%-100% circularity. Height was determined by dividing the area output in pixels by the known 1300 pixel width and converted to microns using the known scaling factor of 0.49 µm/pixel.

[3] = test system: Staphylococcus aureus; experiment: Direct killing of S. aureus by AmB alone; type: cell-based; settings: AmB 2 μM alone vs saline
Method: Staphylococcus aureus-coated gold grids were used to measure antibacterial activity of airway epithelial cultures (3, 4). Small diameter primary cultured epithelia were used for this experiment (0.33 cm^2). Bacteria-coated gold TEM grids were placed onto the apical surface of airway epithelia for 1 min after 48 hours of perfluorocarbon (FC-72, Sigma), 2 μM AmB, or 2 μM C35deOAmB treatment. As controls, bacteria-coated grids were also placed in saline or AmB in FC-72 laid over saline to simulate the administration method for 1 minute. After removal, bacteria on the grids were assessed for viability using Live/Dead BacLight Bacterial Viability assay (Invitrogen). Viability was determined in 4-6 fields to determine the percentages of dead bacteria.

[4] = Na+, K+, Cl-, H+ efflux from liposomes; type: biochemical; settings: 1:1000 AmB:lipid, vs DMSO vehicle
Method: Palmitoyl oleoyl phosphatidylcholine (POPC) was obtained as a 25 mg/mL solution in CHCl3 from Avanti Polar Lipids (Alabaster, AL) and was stored at −20° C. under an atmosphere of dry argon and used within 3 months. Cholesterol (Sigma Aldrich) was purified by recrystallization from ethanol. NaH^13CO3 was obtained as a white solid from Sigma Aldrich. Sodium, potassium, and chloride measurements were obtained using a Denver Instruments (Denver, CO) Model 225 pH meter equipped with the appropriate ion selective probe inside a Faraday cage. Sodium selective measurements were obtained using an Orion micro sodium electrode (Thermo 9811BN). Potassium selective measurements were obtained with an Orion Potassium Sure-Flow Combination Electrode with Waterproof BNC connector (Thermo 9719BNWP). Chloride selective measurements were obtained using an Orion combination chloride electrode (Thermo 9617BNWP). For sodium efflux experiments, measurements were made on 1.5 mL solutions that were magnetically stirred in 7 mL vials incubated at 23° C. […]
Prior to preparing a lipid film, this solution was warmed to ambient temperature to prevent condensation from contaminating the solution and degrading the lipid film. […] To obtain a sufficient quantity of large unilamellar vesicles (LUVs), at least two independent lipid film preparations were pooled together for the subsequent formation of LUVs. […]

C[C@@H]1[C@H](O)[C@@H](C)/C=C/C=C/C=C/C=C/C=C/C=C/C=C/[C@H](O[C@@H]2O[C@H](C)[C@@H](O)[C@H](N)[C@@H]2O)C[C@@H]2O[C@](O)(C[C@@H](O)C[C@@H](O)[C@H](O)CC[C@@H](O)C[C@@H](O)CC(=O)O[C@H]1C)C[C@H](O)[C@H]2C(=O)O [AmB, amphotericin B]
basolateral to apical H^14CO3^− transport, basolateral addition of AmB [1]: did not; also recorded: caused no increase ASL ^14C bicarbonate; also recorded: did not raise ASL pH or increase H^14CO3^− secretion
ASL height, basolateral AmB [2]: did not increase ASL height
ASL height, apical addition ([2]; 0.5 μM): increased ASL height in CuFi-1 epithelia to match that of NuLi epithelia; also recorded: increases ASL height
direct antibacterial activity against S. aureus [3]: insensitive to direct killing by AmB; also recorded: does not have antibacterial activity against S. aureus
transport of potassium, sodium, chloride, protons across a lipid membrane [4]: known to transport monovalent anions and cations; also recorded: can transport potassium, sodium, chloride, protons and HCO3^−
